Structures are written as SMILES. In brackets after ≈: the same amount, converted by molar mass. Activity calls are given as the source filed them. The rule behind the calls is not given here.

Results on 5 compounds are retold here after ChEMBL document CHEMBL4616583 (J Med Chem, 2019).

Series [1] in a line: in vivo. The conditions noted are these: rat, urine, po, 10 mg/kg.
Series [2] in a line: in vitro. The conditions noted are these: human, microsomes.
The nature of series [3]: in vitro. The following applies: human, microsomes. The source holds these as a separate data set.
A short description of series [4]: in vivo. The following applies: mouse, plasma.
A short description of series [5]: in vivo. The conditions noted are these: dog, iv, 1 mg/kg.
A short description of series [6]: in vitro. The following applies: dog, plasma.
Series [7] can be described thus: in vitro. The conditions noted are these: PAMPA, pH 7.4.
The nature of series [8]: in vitro. The conditions noted are these: human, Caco-2.
Series [9] can be described thus: in vivo. The following applies: dog, iv, 1 mg/kg. This is another data set of the same source.
Series [10] in a line: in vivo. The conditions noted are these: rat, iv, 5 mg/kg.
For series [11], the species on record is Mus musculus. The series is described as follows: animal or person. The conditions noted are these: NZB/WF1, po, 504 h, read-out: INH.
A short description of series [12]: physchem. The conditions noted are these: buffer, pH 7.
Series [13] can be described thus: in vivo. The following applies: rhesus monkey, iv, 1 mg/kg.
The species entered for series [14] is Mus musculus. Nature of the series: animal or person. The conditions noted are these: DBA1/J, po, 912 h, read-out: INH.
Series [15] is described as follows: in vivo. The conditions noted are these: dog, iv, 1 mg/kg. The source holds these as a separate data set.
The nature of series [16]: in vivo. The conditions noted are these: rat, po, 5 mg/kg.
Series [17] can be described thus: in vitro. The conditions noted are these: human, Caco-2. The source holds these as a separate data set.
Series [18] has as its system Cynomolgus monkey. The series is described as follows: animal or person. The following applies: Macaca fascicularis, po, 72 h, read-out: INH.
The nature of series [19]: in vivo. The following applies: mouse, po, 4 mg/kg.
Series [20] can be described thus: in vivo. The conditions noted are these: rhesus monkey, po, 2 mg/kg.
Series [21] can be described thus: in vivo. The following applies: rat, iv, 5 mg/kg. The source holds these as a separate data set.
Series [22] is filed under the species Homo sapiens. The conditions noted are these: 10 uM.
Series [23] in a line: in vivo. The conditions noted are these: mouse, plasma. The source holds these as a separate data set.
Series [24] is described as follows: in vivo. The conditions noted are these: mouse, po, 4 mg/kg. The source holds these as a separate data set.
Series [25] in a line: in vivo. The following applies: rhesus monkey, po, 2 mg/kg. This is another data set of the same source.
Series [26] can be described thus: in vitro. The conditions noted are these: rhesus monkey, plasma.
A short description of series [27]: in vivo. The conditions noted are these: dog, po, 2 mg/kg.
Series [28] concerns the target Tyrosine-protein kinase BTK (Mus musculus) (UniProt P35991). The conditions noted are these: 0.5 mg/kg.
Series [29] is described as follows: in vivo. The conditions noted are these: mouse, iv, 2 mg/kg.
Series [30] deals with Tyrosine-protein kinase BTK (Mus musculus) (UniProt P35991). The conditions noted are these: DBA1/J, 2.5 mg/kg.
Chain of Tyrosine-protein kinase BTK (Mus musculus) (P35991 whole entry): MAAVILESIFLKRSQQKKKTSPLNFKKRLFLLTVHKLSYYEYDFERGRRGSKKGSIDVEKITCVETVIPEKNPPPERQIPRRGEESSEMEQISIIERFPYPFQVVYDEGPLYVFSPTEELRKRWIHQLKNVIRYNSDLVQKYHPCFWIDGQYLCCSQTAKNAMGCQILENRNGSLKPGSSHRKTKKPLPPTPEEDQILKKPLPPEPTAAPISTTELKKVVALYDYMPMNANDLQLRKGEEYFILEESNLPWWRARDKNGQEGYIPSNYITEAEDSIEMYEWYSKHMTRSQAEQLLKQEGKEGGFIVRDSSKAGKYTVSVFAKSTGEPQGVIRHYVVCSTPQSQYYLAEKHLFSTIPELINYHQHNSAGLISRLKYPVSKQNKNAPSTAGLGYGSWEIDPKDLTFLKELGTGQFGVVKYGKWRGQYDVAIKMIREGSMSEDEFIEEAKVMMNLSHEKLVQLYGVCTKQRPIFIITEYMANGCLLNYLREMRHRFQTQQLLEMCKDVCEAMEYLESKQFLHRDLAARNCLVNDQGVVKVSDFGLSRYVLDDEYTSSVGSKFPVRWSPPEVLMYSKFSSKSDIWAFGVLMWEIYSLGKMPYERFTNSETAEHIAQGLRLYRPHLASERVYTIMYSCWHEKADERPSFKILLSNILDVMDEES
A short description of series [31]: in vivo. The conditions noted are these: rhesus monkey, iv, 1 mg/kg. The source holds these as a separate data set.
For series [32], the species on record is Mus musculus. The series is described as follows: animal or person. The conditions noted are these: NZB/WF1, po, 504 h, read-out: INH. The source holds these as a separate data set.
Series [33] is described as follows: in vivo. The conditions noted are these: mouse, iv, 2 mg/kg. The source holds these as a separate data set.
The species named for series [34] is Mus musculus. The conditions noted are these: DBA1/J, 0.1 to 2.5 mg/kg.
For series [35], the target named is Tyrosine-protein kinase BTK (Mus musculus) (UniProt P35991). The conditions noted are these: DBA1/J, 0.1 mg/kg.
For series [36], the species on record is Mus musculus. Nature of the series: animal or person. The following applies: NZB/WF1, po, 504 h, read-out: INH. The source holds these as a separate data set.
In series [37] the target is Tyrosine-protein kinase BTK (Mus musculus) (UniProt P35991). The following applies: NZB/WF1, 0.2 mg/kg.
For series [38] the target is unchanged. The conditions noted are these: 0.5 mg/kg. The source holds these as a separate data set.
The nature of series [39]: in vivo. The conditions noted are these: dog, po, 2 mg/kg. The source holds these as a separate data set.
Series [40] can be described thus: physchem. The conditions noted are these: buffer, pH 1.
The nature of series [41]: physchem. The following applies: fasted state simulated intestinal fluid (FaSSIF).
The target of series [42] is Tyrosine-protein kinase BTK (Mus musculus) (UniProt P35991). The conditions noted are these: 0.5 to 2.5 mg/kg.
Series [43] shares this target. The following applies: DBA1/J, 0.5 mg/kg.
Series [44] in a line: in vivo. The conditions noted are these: rat, po, 5 mg/kg. The source holds these as a separate data set.
Series [45] can be described thus: in vivo. The following applies: rat, iv, 5 mg/kg. The source holds these as a separate data set.
A short description of series [46]: in vitro. The following applies: mouse, plasma.
A short description of series [47]: in vitro. The conditions noted are these: human, plasma.
Series [48] concerns the target Tyrosine-protein kinase BTK (Mus musculus) (UniProt P35991). The following applies: NZB/WF1, 0.5 mg/kg.
Series [49] can be described thus: in vivo. The conditions noted are these: rhesus monkey, iv, 1 mg/kg. The source holds these as a separate data set.
Series [50] is described as follows: in vivo. The following applies: mouse, iv, 2 mg/kg. This is another data set of the same source.
Another series concerns B cell. The series is described as follows: cells. The conditions noted are these: Homo sapiens.
For series [51], the species on record is Homo sapiens. The following applies: 10 uM. This is another data set of the same source.
The nature of series [52]: in vivo. The conditions noted are these: mouse, iv, 2 mg/kg. The source holds these as a separate data set.
Series [53] can be described thus: physchem. The conditions noted are these: fed state simulated intestinal fluid (FeSSIF).
Series [54] in a line: in vivo. The conditions noted are these: rhesus monkey, po, 2 mg/kg. The source holds these as a separate data set.
The nature of series [55]: in vivo. The conditions noted are these: mouse, po, 4 mg/kg. The source holds these as a separate data set.
Series [56] in a line: in vivo. The following applies: rat, iv, 5 mg/kg. The source holds these as a separate data set.
Series [57] can be described thus: in vivo. The following applies: rhesus monkey, po, 2 mg/kg. The source holds these as a separate data set.
The subject of series [58] is Cynomolgus monkey. The series is described as follows: animal or person. The conditions noted are these: Macaca fascicularis, po, 4 h, read-out: INH.
Series [59] is described as follows: in vivo. The conditions noted are these: dog, po, 2 mg/kg. This is another data set of the same source.
Series [60] can be described thus: in vivo. The following applies: rat, po, 5 mg/kg. The source holds these as a separate data set.
Series [61] can be described thus: in vivo. The conditions noted are these: mouse, po, 4 mg/kg. This is another data set of the same source.
Series [62] is described as follows: in vivo. The conditions noted are these: rat, po, 5 mg/kg. This is another data set of the same source.
Series [63] can be described thus: in vitro. The conditions noted are these: rat, plasma.
Series [64] in a line: in vivo. The following applies: dog, po, 2 mg/kg. The source holds these as a separate data set.
A short description of series [65]: in vivo. The following applies: rhesus monkey, iv, 1 mg/kg. This is another data set of the same source.
Series [66] in a line: in vitro. The following applies: PAMPA, pH 5.5.
A short description of series [67]: in vivo. The conditions noted are these: dog, iv, 1 mg/kg. This is another data set of the same source.

As to `CC#C[14C](=O)N[C@H]1CCCN(c2c(F)cc(C(N)=O)c3[nH]c(C)c(C)c23)C1`, the dose excreted at 72 h in “in vivo [1]” is 0.7%.

Consider `C=CS(=O)(=O)N[C@H]1CCCN(c2ccc(C(N)=O)c3[nH]c(C)c(C)c23)C1`, for which the share remaining at 10 min in “in vitro [2]” amounted to 90%. This compound also yielded a half-life in the series “in vitro [3]” of 0.833 h. The compound also came in with a Cmax in the series “in vivo [4]” of 0.127 µM.

`CC#CC(=O)N[C@H]1CCCN(c2c(F)cc(C(N)=O)c3[nH]c(C)c(C)c23)C1` [BRANEBRUTINIB]: the half-life was 3 h in “in vivo [5]”, 3.2 h in the series “in vivo [31]”, 0.46 h in the series “in vivo [50]” and 4.3 h in “in vivo [56]”. Moreover, the unbound share (fraction unbound) in “in vitro [6]” was 0.002; in “in vitro [26]” it was 0.004; in the series “in vitro [46]”, 0.004; in “in vitro [47]”, 0.012; in the series “in vitro [63]” it was 0.002. Besides, the Papp in the series “in vitro [7]” turned out to be 97.8 ×10⁻⁶ cm/s; in “in vitro [66]”, 85.9 ×10⁻⁶ cm/s. Besides, the Papp B→A in “in vitro [8]” was in the range of 12.7 to 25 ×10⁻⁶ cm/s. For the same compound, the Vd in “in vivo [9]” turned out to be 0.24 L/kg; in the series “in vivo [13]”, 0.45 L/kg; in “in vivo [45]” it was 0.4 L/kg; in the series “in vivo [52]” it was 0.48 L/kg. Also, the clearance in “in vivo [10]” turned out to be 8.7 mL/min/kg; in “in vivo [15]”, 0.94 mL/min/kg; in the series “in vivo [33]”, 14 mL/min/kg; in “in vivo [65]”, 9.4 mL/min/kg. The inhibition in vivo at 0.5 mg/kg in the series listed under Mus musculus [11] worked out at 51%; in the series on Cynomolgus monkey [18], 74%; with Cynomolgus monkey [58], 100%. The compound also displayed a logD in “physchem [12]” of 3.18. The inhibition in vivo at 2.5 mg/kg in the series listed under Mus musculus [14] was 92%. For the same compound, the Cmax in “in vivo [16]” amounted to 9.6 µM; in “in vivo [19]”, 7.7 µM; in the series “in vivo [54]”, 2.3 µM; in “in vivo [64]”, 19 µM; in the series “in vivo [4]”, 42 µM. The Papp A→B in the series “in vitro [17]” lay in the range of 17.7 to 42.2 ×10⁻⁶ cm/s. Moreover, the Tmax in “in vivo [20]” amounted to 1 h; in the series “in vivo [24]”, 1 h; in “in vivo [27]”, 0.67 h; in the series “in vivo [44]”, 0.58 h. Besides, the mean residence time MRT in the series “in vivo [21]” stood at 0.8 h; in the series “in vivo [29]”, 0.57 h; in the series “in vivo [49]” it was 1 h; in the series “in vivo [67]” it was 4.1 h. The inhibition in the series filed under Homo sapiens [22] turned out to be 23%; in [28] it was 86%; in series [30] it was 99%; in series [35] it was 64%; in [37], 92%; in [38], 90%. Also, the inhibition stood at 25% in series [42], 97% in series [43], 99% in [48] and 3.1% in the series filed under Homo sapiens [51]. The AUC in “in vivo [23]” is 52 µM·h; in “in vivo [55]”, 14 µM·h; in the series “in vivo [57]”, 4.9 µM·h; in “in vivo [59]” it was 78 µM·h; in “in vivo [60]”, 18 µM·h. For the same compound, the bioavailability in “in vivo [25]” was 46%; in “in vivo [39]” it was 81%; in “in vivo [61]” it was 106%; in the series “in vivo [62]”, 74%. In addition, the inhibition in vivo at […] in the series listed under Mus musculus [32] was found to be 61%. In addition, the inhibition entry in the series listed under Mus musculus [34] was “Active”. For the same compound, in the series filed under Mus musculus [36], the inhibition in vivo at 0.2 mg/kg was found to be 40%. Also, the solubility is 2 to 3 µg/mL (≈ 5.4 to 8.1 µM) in “physchem [40]”, 9 µg/mL (≈ 24.3 µM) in “physchem [41]” and 145 µg/mL (≈ 391 µM) in “physchem [53]”. In the series with B cell, this compound showed an IC50 of 0.04 nM.

Turning to `CC#CC(=O)N[C@H]1CCCN(c2ccc(C(N)=O)c3[nH]c(C)c(C)c23)C1`, in the series “in vivo [23]”, the AUC was determined as 1.1 µM·h. This compound gave a Cmax in “in vivo [4]” of 0.49 µM.

Take `C=CS(=O)(=O)N[C@@H]1CCCN(c2ccc(C(N)=O)c3[nH]c(C)c(C)c23)C1`: the share remaining at 10 min in “in vitro [2]” worked out at 84%.
